For 22 compounds, MIC results are on record in ChEMBL document CHEMBL4346715, “Antibacterial activity study of 1,2,4-triazole derivatives” (Eur J Med Chem, 2019).

Converted amounts (≈) assume the structure as drawn.

The test system of experiment [1] is Staphylococcus aureus. The experiment can be described thus: Antibacterial activity against Staphylococcus aureus incubated for 18 hrs post 30 mins pre-diffusion by disk diffusion method. The experiment is classed as functional.
For experiment [2], the system named is Escherichia coli. The experiment is described as follows: Antibacterial activity against Escherichia coli incubated for 18 hrs post 30 mins pre-diffusion by disk diffusion method. The experiment is classed as functional.
The subject of experiment [3] is Escherichia coli. The experiment can be described thus: Antibacterial activity against Escherichia coli. In kind it is functional.
The test system of experiment [4] is Staphylococcus aureus. The experiment can be described thus: Antibacterial activity against Staphylococcus aureus. The experiment is classed as functional.
Experiment [5] relates to Bacillus subtilis. The experiment is described as follows: Antibacterial activity against Bacillus subtilis. In kind it is functional.
Experiment [6] deals with Clostridium tetani. The experiment can be described thus: Antibacterial activity against Clostridium tetani. In kind it is functional.
Experiment [7] relates to Streptococcus pneumoniae. The experiment can be described thus: Antibacterial activity against Streptococcus pneumoniae. The experiment is classed as functional.
Experiment [8] has as its system Salmonella typhimurium. The experiment can be described thus: Antibacterial activity against Salmonella typhimurium ATCC 14028 after 24 hrs by broth microdilution method. In kind it is functional, Salmonella enterica subsp. enterica serovar Typhimurium. The conditions noted are these: Salmonella enterica, ATCC 14028, 24 h.
Experiment [9] relates to Escherichia coli. The experiment can be described thus: Antibacterial activity against Escherichia coli after 24 hrs by broth microdilution method. In kind it is functional.
For experiment [10], the system named is Pseudomonas aeruginosa. The experiment is described as follows: Antibacterial activity against Pseudomonas aeruginosa ATCC 27853 after 24 hrs by broth microdilution method. The experiment is classed as functional. The note with it: ATCC 27853, 24 h.
Experiment [11] relates to Staphylococcus aureus. The experiment can be described thus: Antibacterial activity against Staphylococcus aureus ATCC 49444 after 24 hrs by broth microdilution method. The experiment is classed as functional. The conditions noted are these: ATCC 49444, 24 h.
Experiment [12] concerns Listeria monocytogenes. The experiment is described as follows: Antibacterial activity against Listeria monocytogenes ATCC 35152 after 24 hrs by broth microdilution method. The experiment is classed as functional. The conditions noted are these: ATCC 35152, 24 h.
In experiment [13] the test system is Pseudomonas aeruginosa. The experiment can be described thus: Antibacterial activity against Pseudomonas aeruginosa. In kind it is functional.
Experiment [14] deals with Aspergillus niger. The experiment is described as follows: Antifungal activity against Aspergillus niger. The experiment is classed as functional.
Experiment [15] has as its system Candida albicans. The experiment is described as follows: Antifungal activity against Candida albicans. In kind it is functional.

`FC(F)(F)c1cc(-c2nnc(Sc3cc(Cl)nc(Oc4ccccc4)n3)[nH]2)cc(C(F)(F)F)c1`: the MIC in experiment [1] and in experiment [2] was 1.6 to 250 µg/mL (≈ 3.09 to 483 µM) each time.
For the compound NYSTATIN, the MIC in experiment [3], in experiment [4], in experiment [5], in experiment [6] and in experiment [7] was 100 to 500 µg/mL each time.
For the compound `Cc1nc(-c2ccccc2)sc1-c1nnc(S)n1/N=C/c1ccc(Br)cc1`, the MIC in experiment [8], in [9], in experiment [10], in experiment [11] and in experiment [12] was 1.95 to 62.5 µg/mL (≈ 4.27 to 137 µM) each time.
Regarding `OCCCCSc1nc(Cl)cc(Sc2nnc(-c3cc(C(F)(F)F)cc(C(F)(F)F)c3)[nH]2)n1`, the MIC in experiment [1] and in experiment [2] was 1.6 to 250 µg/mL (≈ 3.02 to 472 µM) throughout.
For the compound `COc1cc(OC)cc(-c2nnc(Sc3cc(Cl)nc(SC)n3)[nH]2)c1`, the MIC in experiment [1] and in [2] was 1.6 to 250 µg/mL (≈ 4.04 to 631 µM) in each case.
For the compound `CCCCCSc1nc(Cl)cc(Sc2nnc(-c3cc(C(F)(F)F)cc(C(F)(F)F)c3)[nH]2)n1`, the MIC in [1] and in experiment [2] was 1.6 to 250 µg/mL (≈ 3.03 to 474 µM) throughout.
Take `CSc1nc(Cl)cc(Sc2nnc(-c3cc(C)cc(C)c3)[nH]2)n1`: the MIC in [1] and in experiment [2] was 1.6 to 250 µg/mL (≈ 4.4 to 687 µM) in each case.
Take `Fc1ccc(/C=N/n2c(-c3ccncc3)n[nH]c2=S)cc1`: the MIC in experiment [13] is 12.5 µg/mL (≈ 41.8 µM); in [14], 10.2 to 162 µg/mL (≈ 34.1 to 543 µM); in experiment [3] it was 10.2 to 162 µg/mL (≈ 34.1 to 543 µM); in [4], 10.2 µg/mL (≈ 34.1 µM); in experiment [5] it was 10.2 to 162 µg/mL (≈ 34.1 to 543 µM); in experiment [15] it was 10.2 to 162 µg/mL (≈ 34.1 to 543 µM).
For the compound `Cc1ccc(-c2cc(-c3c(C)nn(-c4ccccc4)c3-n3cncn3)n3c(n2)nc2ccccc23)cc1`, the MIC in [3], in experiment [4], in [5], in [6] and in experiment [7] was 62.5 to 250 µg/mL (≈ 130 to 518 µM) each time.
Consider `Brc1ccccc1-c1nnc2sc(-c3ccccc3)nn12`, for which the MIC was 6.25 µg/mL (≈ 17.5 µM) in experiment [14] and 3.12 µg/mL (≈ 8.75 µM) in experiment [15].
As to `C/C=N/n1c(S)nnc1-c1ccncc1`, the MIC in experiment [13], in experiment [14], in experiment [3], in experiment [4], in [5] and in experiment [15] was 10.2 to 162 µg/mL (≈ 46.5 to 741 µM) each time.
For `Cc1nn(-c2ccccc2)c(-n2cncn2)c1-c1cc(-c2ccc(-c3cc[nH]c3)cc2)nc2nc3ccccc3n12`, the MIC in experiment [3], in [4], in experiment [5], in experiment [6] and in experiment [7] was 62.5 to 250 µg/mL (≈ 117 to 469 µM) each time.
Take `O=[N+]([O-])c1ccc(/C=N/n2c(S)nnc2-c2ccncc2)cc1`: the minimal inhibitory concentration (MIC) in experiment [13], in experiment [14], in experiment [3], in [4], in [5] and in [15] was 10.2 to 162 µg/mL (≈ 31.3 to 498 µM) in each case.
For the compound `Cc1nc(-c2ccccc2)sc1-c1nnc(S)n1/N=C/c1cccc([N+](=O)[O-])c1`, the minimal inhibitory concentration (MIC) in experiment [8], in experiment [9], in experiment [10], in experiment [11] and in [12] was 1.95 to 62.5 µg/mL (≈ 4.62 to 148 µM) in each case.
On to `Sc1nnc(-c2ccncc2)n1/N=C/c1ccc(Cl)cc1`, for which the MIC in experiment [13], in [14], in experiment [3], in experiment [4], in experiment [5] and in experiment [15] was 10.2 to 162 µg/mL (≈ 32.3 to 515 µM) throughout.
`COc1cc(-c2nnc(Sc3cc(Cl)nc(Sc4ccccc4)n3)[nH]2)ccc1O`: the MIC in experiment [1] and in experiment [2] was 1.6 to 250 µg/mL (≈ 3.6 to 563 µM) throughout.
On to `Cc1nc(-c2ccccc2)sc1-c1nnc(S)n1/N=C/c1cccc(O)c1`, for which the MIC in experiment [8], in experiment [9], in experiment [10], in experiment [11] and in [12] was 1.95 to 62.5 µg/mL (≈ 4.96 to 159 µM) throughout.
`Cc1nc(-c2ccccc2)sc1-c1nnc(S)n1/N=C/c1ccc(F)cc1`: the MIC in experiment [8], in experiment [9], in experiment [10], in [11] and in experiment [12] was 1.95 to 62.5 µg/mL (≈ 4.93 to 158 µM) each time.
Consider `FC(F)(F)c1cccc(-c2nnc(Sc3cc(Cl)nc(Sc4ccccc4)n3)[nH]2)c1`, for which the MIC in experiment [1] and in experiment [2] was 1.6 to 250 µg/mL (≈ 3.43 to 537 µM) each time.
On to `COC1=CC(=O)C[C@@H](C)[C@]12Oc1c(Cl)c(OC)cc(OC)c1C2=O` [GRISEOFULVIN], for which the minimum inhibitory concentration (MIC) in experiment [3], in [4], in experiment [5], in experiment [6] and in experiment [7] was 100 to 500 µg/mL (≈ 283 to 1420 µM) throughout.
In the case of `Sc1nnc(-c2ccncc2)n1/N=C/c1ccccc1`, the MIC in experiment [13] fell in the range of 14.1 to 17.2 µg/mL (≈ 50.1 to 61.1 µM); in experiment [14], 10.2 to 162 µg/mL (≈ 36.3 to 578 µM); in experiment [3], 10.2 to 162 µg/mL (≈ 36.3 to 578 µM); in experiment [4] it was 14.1 to 17.2 µg/mL (≈ 50.1 to 61.1 µM); in experiment [5], 10.2 to 162 µg/mL (≈ 36.3 to 578 µM); in [15], 10.2 to 162 µg/mL (≈ 36.3 to 578 µM).
Consider `C=CC/C=N/n1c(S)nnc1-c1ccncc1`, for which the MIC in [13], in experiment [14], in experiment [3], in [4], in experiment [5] and in experiment [15] was 10.2 to 162 µg/mL (≈ 41.6 to 662 µM) throughout.
